Consider two compounds from patent US6372741B1, “Use of CSAID™ compounds as inhibitors of angiogenesis” (SmithKline Beecham Corporation, priority 1996, dated 2002).

The subject of one assay is TNF-α. Description: TNF-α levels in granuloma tissue homogenates by ELISA. Particulars: 30 mg/kg orally twice a day; day 7. The class given is in vivo, mice. The procedure: (§1) The levels of these cytokines over the course to granuloma development were measured to determine if the modulation of their expression by the compound correlated with angiogenesis. Cytokine levels were measured by ELISA using homogenates of granuloma tissue. TNF-α levels rose sharply, peaking at day 7 and dropping back down to moderate levels by day 14 (FIG. 2). […] Thus, the ability of the compound to block the sharp rise in TNF-α and IL-1β between days 5 and 7 correlated well with the ability of the compound to prevent the increase in vascular index that occurs over the same time points.
(§2) Tissue extracts were made by homogenizing granulomas in 0.5 ml 5 mM KH2PO4/0.1 gm wet tissue. IL-1β levels were determined using a Cytoscreen Immunoassay Kit (catalog #KMC 0012) from BioSource International, Camarillo, Calif. TNF-α levels were determined using the following assay: plates were coated with hamster anti-murine TNF-α antibody (Genzyme, Cambridge, Mass.), for 2 hours at 37° C., washed and blocked with a casein-BSA solution (5 gram/L for each) for 1 hour at 37° C., the samples were added and incubated at 4° C. overnight. […] The reaction was terminated with 25 ul 0.1M NaF per well, the O.D. read at 460 nm. Sample values for both ELISAs are calculated using DeltaSoft ELISA analysis software (Biomettalics Inc., Princeton, N.J.).
(In an ELISA, binding on a coated surface is turned into a signal by an enzyme label.)

The test system of assay [1] is angiogenesis in granuloma (vascular index). In words: Murine air pouch granuloma model: vascular index by carmine vascular cast. The assay is classed as in vivo, mice. Conditions: for maximum reduction in vascular index: Compound I at 50 mg.kg, bid, i.p., versus vehicle control. An excerpt: (§3) The murine airpouch granuloma model of chronic inflammation (Kimura et al., 1985, J. Pharmacobio-Dyn., 8:393-400; Colville-Nash et al.,1995, J. Pharm. and Exp. Ther., 274:1463-1472) whose disclosure is incorporated herein by reference in its entirety, is characterized by inflammatory cell influx, fibrous tissue proliferation and intense angiogenesis. […] In addition, angiogenesis can be accurately quantitated by a vascular casting method.
(§4) Murine air pouch granuloma model
(§5) Day-1, mice are anesthetized using Aerrane (isoflurane) gas (5%), after which 3mls of air is injected into the dorsal subcutaneous tissue using a 27 g needle. Mice are allowed to recover.
(§6) Day 0, mice are again anesthetized using Aerrane, once anesthetized 0.5 ml of Freunds complete adjuvant with 0.1% v/v croton oil is injected into the air pouch formed on Day-1. The animals also begin their dosing regime (number of days dependent upon study) with the animals typically receiving compound in 0.2 ml N,N, Dimethyl Acetoacetamide(DMA)(Sigma, St. Louis, Mo.)/Cremephor El (Sigma, St. Louis, Mo.)/saline (10/10/80) or other appropriate vehicle. The animals are allowed to recover and all subsequent dosing is performed on the animals in the absence of anesthetics.
(§7) Days 1-5, animals are dosed according to schedule.
[…] Louis, Mo.)/gelatin (5%)(Sigma, St. Louis, Mo.) solution. The animals are then sacrificed by lethal dose of anesthesia and chilled at 4 C for 2 hours prior to the removal of the granuloma tissue.
(§8) When the granuloma is removed it is weighed and then dried for 3 days at 45 C and reweighed. The dried tissue is then digested in 0.9 ml of a 0.05M phosphate buffer pH 7.0 containing 12 U/ml^−1 papain (Sigma, St. Louis, Mo.) and 0.33 g/L^−1 N-acetyl-1-Cysteine (Sigma, St. Louis, Mo.) at 57 C for 3 days. After 3 days digestion the carmine red is solubilized by the addition of 0.1 ml 5 mM NaOH. Samples are centrifuged and then filtered using 0.2 um acrodiscs. The carmine content is then determined against a carmine red standard curve (0.5 to 2 mg/ml) generated in extracted tissue from non carmine treated animals and read at 490 nm. Sample and standard values are determined using DeltaSoft Elisa analysis software (Biometallics Inc., Princeton, N.J.). The carmine content is then used to determine the vascular indexes for the various treatments, vascular index being the mg carmine dye/gm dry tissue.

Another assay relates to IL-1β. In words: IL-1β levels in granuloma tissue homogenates by ELISA. The assay is classed as in vivo, mice. Particulars: 30 mg/kg orally twice a day; peak at day 7. The procedure:
as §1, §2

For assay [2], the system named is granuloma size (dry weight). Description: Murine air pouch granuloma model: granuloma size by dry weight. The class given is in vivo, mice. Particulars: for effect on granuloma size as measured by dry weight: day 6 granuloma.
Text: as §3, §4, §5, §6, §7
Louis, Mo.)/gelatin (5%)(Sigma, St. Louis, Mo.) solution. […]
as §8, with “The carmine content is then used to determine the vascular indexes for the various treatments, vascular index being the mg carmine dye/gm dry tissue.” left out

Another assay has as its system granuloma vasculature. In words: Microscopic evaluation of vasculature in day 6 granulomas. The class given is in vivo. Conditions: treated versus untreated mice. The source says: Angiogenesis in the granuloma was microscopically evaluated. The vasculature of day 6 granulomas from both untreated and compound I treated mice was examined. […] In fact, there was a almost no fine capillaries visible, only a few larger vessels.

Take `Nc1nccc(-c2c(-c3ccc(F)cc3)ncn2C2CCNCC2)n1` [Compound I, 1-Piperidine-4-(4-fluorophenyl)-5-(2-aminopyrimidin-4-yl)imidazole]: the “TNF-α levels in granuloma” value with TNF-α is listed as “greatly reduced TNF-α levels”. In assay [1] (30 mg/kg orally twice a day from day 0, day 3), the “vascular index (VI) compared to control at day 3” value is “did not cause a significant reduction in VI”. For the same compound, in assay [1] (30 mg/kg orally twice a day from day 0, days 5, 7 and 14), the “vascular index (VI) compared to control at days 5, 7 and 14” value is recorded as “lowered significantly”. In addition, the “decrease in the vascular index (in words)” value in assay [1] (day 6 granuloma, dosing from induction) is “significant and dose dependent decrease”. Moreover, the “maximum reduction in vascular index” value in assay [1] (day 6 granuloma) turned out to be 44%. In addition, in the assay with IL-1β, the “IL-1β expression in granuloma” value is reported as “effectively blocked the increased IL-1β expression”. For the same compound, in assay [2] (30 mg/kg orally twice a day from day 0, days 3, 5, 7 and 14), the “granuloma size over time course” value is given as “unaffected by the compound”. The “effect on granuloma size as measured by dry weight” value in assay [2] is on record as “Neither Compound I nor medroxyprogesterone had an effect”. For the same compound, the “vasculature of granuloma, microscopic evaluation” value in the assay with granuloma vasculature is given as “striking reduction in the vasculature”.
For “medroxyprogesterone [reference compound]”, the “maximum reduction in vascular index” value in assay [1] (day 6 granuloma) stood at 50%. The “effect on granuloma size as measured by dry weight” value in assay [2] is on record as “Neither Compound I nor medroxyprogesterone had an effect”.
